From patent US10793563B2, “GCN2 inhibitors and uses thereof” (Merck Patent GmbH, priority 2018, dated 2020)

Assays:
[1] = target: GCN2 kinase (Homo sapiens (Human), UniProt Q9P2K8); experiment: GCN2 Enzyme Inhibition Assay (Transcreener ADP2 fluorescence polarization); type: biochemical; details: 280 μM ATP, 200 μM (RS)7 peptide, 4 nM GCN2, 25° C.; for Ki: Ki(app)
Summary of the method: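 Transcreener ADP2 fluorescence polarization detection of ADP from 4 nM GCN2 with (RS)7 substrate in 25 mM Tris-HCl pH 7.5, 50 mM NaCl, 10 mM MgCl2, 1 mM DTT. Compound pre-incubated with enzyme 10 min at 25 °C; reaction started by ATP, run 1 h at 25 °C. IC50 and Ki(app) by tight-binding fit.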

[2] = target: intracellular GCN2 (phosphorylation of the GCN2 substrate eIF2α) (Homo sapiens (Human), UniProt Q9P2K8); experiment: GCN2 Cellular Inhibition Assay (AlphaScreen SureFire P-eIF2α Ser51, borrelidin-treated U2OS cells); type: cell-based; details: 10 μM borrelidin, 1 h, phosphorylated eIF2α Ser51, read-out: GCN2 Biomarker (IC50)
Chain of intracellular GCN2 (phosphorylation of the GCN2 substrate eIF2α) (Q9P2K8 whole entry): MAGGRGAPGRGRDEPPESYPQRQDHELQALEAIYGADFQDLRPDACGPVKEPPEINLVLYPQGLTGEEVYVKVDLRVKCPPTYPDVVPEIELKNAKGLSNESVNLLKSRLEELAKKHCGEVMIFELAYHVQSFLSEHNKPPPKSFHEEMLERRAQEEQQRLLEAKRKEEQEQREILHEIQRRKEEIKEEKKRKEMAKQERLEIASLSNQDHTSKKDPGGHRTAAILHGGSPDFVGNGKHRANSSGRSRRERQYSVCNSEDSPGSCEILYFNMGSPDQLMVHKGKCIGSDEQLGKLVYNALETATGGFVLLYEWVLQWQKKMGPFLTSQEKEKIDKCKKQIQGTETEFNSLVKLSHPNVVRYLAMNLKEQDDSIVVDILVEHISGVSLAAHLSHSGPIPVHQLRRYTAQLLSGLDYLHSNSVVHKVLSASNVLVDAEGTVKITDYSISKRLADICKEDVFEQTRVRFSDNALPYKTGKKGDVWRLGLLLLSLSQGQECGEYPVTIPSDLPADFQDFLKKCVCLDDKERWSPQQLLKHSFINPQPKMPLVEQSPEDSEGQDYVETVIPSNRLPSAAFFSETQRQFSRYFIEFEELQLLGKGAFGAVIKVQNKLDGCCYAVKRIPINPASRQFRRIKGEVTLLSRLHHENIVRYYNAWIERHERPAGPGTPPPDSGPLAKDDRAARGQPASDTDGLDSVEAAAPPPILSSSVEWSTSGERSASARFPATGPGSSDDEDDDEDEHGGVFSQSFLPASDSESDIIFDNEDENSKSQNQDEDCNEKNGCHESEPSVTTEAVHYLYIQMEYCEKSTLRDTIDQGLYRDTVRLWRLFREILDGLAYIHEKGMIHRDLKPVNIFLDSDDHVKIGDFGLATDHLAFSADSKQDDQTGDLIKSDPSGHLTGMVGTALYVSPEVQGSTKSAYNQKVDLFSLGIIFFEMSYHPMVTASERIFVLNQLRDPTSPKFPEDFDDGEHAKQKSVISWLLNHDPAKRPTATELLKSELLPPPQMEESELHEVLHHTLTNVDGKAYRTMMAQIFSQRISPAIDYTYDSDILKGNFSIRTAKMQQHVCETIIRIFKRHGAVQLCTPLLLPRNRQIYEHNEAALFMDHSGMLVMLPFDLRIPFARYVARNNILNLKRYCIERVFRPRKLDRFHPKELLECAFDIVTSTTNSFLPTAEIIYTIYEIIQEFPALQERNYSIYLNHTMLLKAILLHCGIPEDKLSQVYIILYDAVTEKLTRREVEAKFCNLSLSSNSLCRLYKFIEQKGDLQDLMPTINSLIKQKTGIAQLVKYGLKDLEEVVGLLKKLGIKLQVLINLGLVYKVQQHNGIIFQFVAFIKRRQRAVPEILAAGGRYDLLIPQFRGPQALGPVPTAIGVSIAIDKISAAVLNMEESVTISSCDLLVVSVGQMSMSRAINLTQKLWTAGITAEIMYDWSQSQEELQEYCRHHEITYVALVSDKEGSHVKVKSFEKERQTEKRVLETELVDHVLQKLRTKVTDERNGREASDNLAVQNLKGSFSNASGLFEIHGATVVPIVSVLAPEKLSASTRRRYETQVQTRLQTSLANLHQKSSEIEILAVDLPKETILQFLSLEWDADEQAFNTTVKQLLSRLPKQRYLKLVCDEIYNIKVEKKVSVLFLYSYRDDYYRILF
Summary of the method: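 U2OS cells adhered overnight, then given compound (top 40 μM, 4-fold serial dilutions) plus 10 μM borrelidin for 1 h at 37 °C. Lysates assayed for eIF2α phospho-Ser51 by AlphaScreen SureFire; % inhibition versus borrelidin-only wells.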

Chain of GCN2 kinase (Q9P2K8 whole entry): as above

| Compound | Ki [1] [µM] | IC50 [2] [µM] | IC50 [1] [µM] |
| --- | --- | --- | --- |
| CS(=O)(=O)NC[C@@H]1CN(c2cncc(-c3cnc4ccc(Cl)cn34)n2)CCO1 [I-113, (S)—N-((4-(6-(6-chloroimidazo[1,2-a]pyridin-3-yl)pyrazin-2-yl)morpholin-2-yl)methyl)methanesulfonamide] | < 0.01 | 0.5 to 5 |  |
| C[C@@H]1CCN(c2ccnc(-c3cnc4ccc(C(F)(F)F)cn34)n2)CC1F (stereo in doubt) [I-240, 3-(4-((3R,4R)-3-fluoro-4-methylpiperidin-1-yl)pyrimidin-2-yl)-6-(trifluoromethyl)imidazo[1,2-a]pyridine] |  | 0.5 to 5 | 0.1 to 1 |
| NC(=O)[C@H]1CCCN(c2ncc(F)c(-c3cnc4ccc(C(F)(F)F)cn34)n2)C1 [I-219, (S)-1-(5-fluoro-4-(6-(trifluoromethyl)imidazo[1,2-a]pyridin-3-yl)pyrimidin-2-yl)piperidine-3-carboxamide] |  | 0.5 to 5 | 0.01 to 0.1 |
| Cc1cc(-c2cnc3ccc(Cl)cn23)nc(N2C[C@H](C)O[C@@H](c3c[nH]nc3C)C2)n1 [I-220, (2S,6S)-4-(4-(6-chloroimidazo[1,2-a]pyridin-3-yl)-6-methylpyrimidin-2-yl)-2-methyl-6-(5-methyl-1H-pyrazol-4-yl)morpholine] |  | 0.5 to 5 | 0.01 to 0.1 |
| C[C@H]1C[C@H](c2cn[nH]c2)CN(c2nccc(-c3cnc4ccc(Cl)cn34)n2)C1 (stereo in doubt) [I-198, 6-chloro-3-(2-((3S,5R)-3-methyl-5-(1H-pyrazol-4-yl)piperidin-1-yl)pyrimidin-4-yl)imidazo[1,2-a]pyridine] |  | 0.5 to 5 | < 0.01 |
| C[C@@H]1C[C@H](N=S(C)(C)=O)CN(c2nccc(-c3cnc4cc(Cl)c(Cl)cn34)n2)C1 [I-244, (((3 S,5R)-1-(4-(6,7-dichloroimidazo[1,2-a]pyridin-3-yl)pyrimidin-2-yl)-5-methylpiperidin-3-yl)imino)dimethyl-λ6-sulfanone] |  | 0.5 to 5 | 0.01 to 0.1 |
| OC1(c2ccccc2)CCCN(c2ccnc(-c3cnc4cc(F)c(Cl)cn34)n2)C1 (stereo not shown) [I-81, 1-[2-(6-Chloro-7-fluoro-imidazo[1,2-a]pyridin-3-yl)-pyrimidin-4-yl]-3-phenyl-piperidin-3-ol] | 0.01 to 0.1 | 0.5 to 5 |  |
| Cn1cc(NC(=O)[C@H]2CCCN(c3ccnc(-c4cnc5cc(F)c(Cl)cn45)n3)C2)cn1 [I-59, (S)-1-[2-(6-Chloro-7-fluoro-imidazo[1,2-a]pyridine-3-yl)-pyrimidin-4-yl]-piperidine-3-carboxylic acid (1-methyl-1H-pyrazol-4-yl)-amide] | 0.1 to 1 | > 5 |  |
| Clc1ccc2ncc(-c3ncnc(N4CCOC(c5cn[nH]c5)C4)n3)n2c1 (stereo not shown) [I-22, 4-[4-(6-Chloroimidazo[1,2-a]pyridin-3-yl)-1,3,5-triazin-2-yl]-2-(1H-pyrazol-4-yl)morpholine] | < 0.01 | < 0.5 |  |
| Clc1ccc2ncc(-c3nccc(N4CCC(c5cn[nH]c5)C4)n3)n2c1 (stereo not shown) [I-27, 6-Chloro-3-[4-[3-(1H-pyrazol-4-yl)pyrrolidin-1-yl]pyrimidin-2-yl]imidazo[1,2-a]pyridine] | < 0.01 | < 0.5 |  |
| CC1CC(C(N)=O)C(C)N(c2ccnc(-c3cnc4ccc(Cl)cn34)n2)C1 (stereo not shown) [I-50, 1-[2-(6-Chloroimidazo[1,2-a]pyridin-3-yl)pyrimidin-4-yl]-2,5-dimethyl-piperidine-3-carboxamide] | < 0.01 | 0.5 to 5 |  |
| CC1CN(c2nccc(-c3cnc4ccc(C(F)(F)F)cn34)n2)C(C)C(c2cn[nH]c2)N1 (single isomer, unassigned) [I-34, 3-[2-[2,5-dimethyl-3-(1H-pyrazol-4-yl)piperazin-1-yl]pyrimidin-4-yl]-6-(trifluoromethyl)imidazo[1,2-a]pyridine] | < 0.01 | < 0.5 |  |
| NC(=O)[C@@H]1CCCN(c2nc(-c3cnc4ccc(C(F)(F)F)cn34)ccc2F)C1 [I-260, (R)-1-(3-fluoro-6-(6-(trifluoromethyl)imidazo[1,2-a]pyridin-3-yl)pyridin-2-yl)piperidine-3-carboxamide] |  | < 0.5 | < 0.01 |
| Clc1ccc2ncc(-c3nccc(N4CCOC(c5cn[nH]c5)C4)n3)n2c1 (stereo not shown) [I-20, 4-[2-(6-Chloroimidazo[1,2-a]pyridin-3-yl)pyrimidin-4-yl]-2-(1H-pyrazol-4-yl)morpholine] | < 0.01 | < 0.5 |  |

The remaining lines, values ahead:

| Ki [1] [µM] | IC50 [2] [µM] | IC50 [1] [µM] | Compound |
| --- | --- | --- | --- |
|  | 0.5 to 5 | 0.01 to 0.1 | NC(=O)C1CN(c2ccnc(-c3cnc4ccc(C(F)(F)F)cn34)n2)CCN1C1COC1 (stereo not shown) [I-263, 1-(oxetan-3-yl)-4-(2-(6-(trifluoromethyl)imidazo[1,2-a]pyridin-3-yl)pyrimidin-4-yl)piperazine-2-carboxamide] |
|  | 0.5 to 5 | 0.01 to 0.1 | CC1(C)CN(c2ccnc(-c3cnc4ccc(C(F)(F)F)cn34)n2)CC2(CN(S(C)(=O)=O)C2)O1 [I-304, 6,6-dimethyl-2-(methylsulfonyl)-8-(2-(6-(trifluoromethyl)imidazo[1,2-a]pyridin-3-yl)pyrimidin-4-yl)-5-oxa-2,8-diazaspiro[3.5]nonane] |
|  | < 0.5 | < 0.01 | FC(F)(F)c1ccc2ncc(-c3nccc(N4CCN(Cc5cnon5)C(c5cn[nH]c5)C4)n3)n2c1 (stereo not shown) [I-461, 4-{4-[(1,2,5-oxadiazol-3-yl)methyl]-3-(1H-pyrazol-4-yl)piperazin-1-yl}-2-[6-(trifluoromethyl)imidazo[1,2-a]pyridin-3-yl]pyrimidine] |
|  | < 0.5 | < 0.01 | FC(F)(F)c1ccc2ncc(-c3nccc(N4CCNC(c5cn[nH]c5)C4)n3)n2c1 (stereo not shown) [I-351, 3-(4-(3-(1H-pyrazol-4-yl)piperazin-1-yl)pyrimidin-2-yl)-6-(trifluoromethyl)imidazo[1,2-a]pyridine] |
|  | 0.5 to 5 | 0.01 to 0.1 | NS(=O)(=O)c1ccc2ncc(-c3nccc(N4CCCC(c5cn[nH]c5)C4)n3)n2c1 (stereo not shown) [I-320, 3-(4-(3-(1H-pyrazol-4-yl)piperidin-1-yl)pyrimidin-2-yl)imidazo[1,2-a]pyridine-6-sulfonamide] |
|  | 0.5 to 5 | 0.1 to 1 | Cc1[nH]ncc1[C@H]1C[C@H](N=S(C)(C)=O)CN(c2ccnc(-c3cnc4ccc(C(F)(F)F)cn34)n2)C1 [I-344, dimethyl(((3 S,5R)-5-(5-methyl-1H-pyrazol-4-yl)-1-(2-(6-(trifluoromethyl)imidazo[1,2-a]pyridin-3-yl)pyrimidin-4-yl)piperidin-3-yl)imino)-λ6-sulfanone] |
|  | < 0.5 | 0.01 to 0.1 | CCOC1(N2CCN(c3ccnc(-c4cnc5ccc(C(F)(F)F)cn45)n3)C(C)C2c2cn[nH]c2)CC1 (stereo not shown) [I-348, 3-(4-(4-(1-ethoxycyclopropyl)-2-methyl-3-(1H-pyrazol-4-yl)piperazin-1-yl)pyrimidin-2-yl)-6-(trifluoromethyl)imidazo[1,2-a]pyridine] |
|  | > 5 | 0.1 to 1 | C[C@@H]1[C@H]([C@@H](C)NS(C)(=O)=O)N(C2CC2)CCN1c1ccnc(-c2cnc3ccc(C(F)(F)F)cn23)n1 [I-505, N—((R)-1-((2R,3R)-1-cyclopropyl-3-methyl-4-(2-(6-(trifluoromethyl)imidazo[1,2-a]pyridin-3-yl)pyrimidin-4-yl)piperazin-2-yl)ethyl)methanesulfonamide] |
|  | 0.5 to 5 | 0.1 to 1 | Cc1[nH]ncc1[C@@H]1[C@@H](C)N(c2ccnc(-c3cnc4ccc(C(F)(F)F)cn34)n2)CCN1C1COC1 [I-368] |
|  | > 5 | 0.1 to 1 | O=C(O)CC1CN(c2ccnc(-c3cnc4ccc(Cl)cn34)n2)CCO1 (stereo not shown) [I-298, 2-(4-(2-(6-chloroimidazo[1,2-a]pyridin-3-yl)pyrimidin-4-yl)morpholin-2-yl)acetic acid] |
|  | < 0.5 | < 0.01 | C[C@H]1CN(c2nccc(-c3cnc4cc(F)c(Cl)cn34)n2)C[C@@H](c2cn[nH]c2)O1 [I-270, (2S,6R)-4-(4-(6-chloro-7-fluoroimidazo[1,2-a]pyridin-3-yl)pyrimidin-2-yl)-2-methyl-6-(1H-pyrazol-4-yl)morpholine] |
|  | 0.5 to 5 | 0.01 to 0.1 | FC(F)(F)c1ccc2ncc(-c3nccc(N4CCN[C@H](c5cn[nH]c5)C4)n3)n2c1 [I-532, (R)-3-(4-(3-(1H-pyrazol-4-yl)piperazin-1-yl)pyrimidin-2-yl)-6-(trifluoromethyl)imidazo[1,2-a]pyridine] |
|  | > 5 | 0.1 to 1 | C[C@@H]1CN(c2ccnc(-c3cnc4ccc(C(F)(F)F)cn34)n2)C[C@H](C)N1C(=O)c1ccn(C2CC2)n1 [I-440, (1-cyclopropyl-1H-pyrazol-3-yl)(cis-2,6-dimethyl-4-(2-(6-(trifluoromethyl)imidazo[1,2-a]pyridin-3-yl)pyrimidin-4-yl)piperazin-1-yl)methanone] |
|  | 0.5 to 5 | 0.01 to 0.1 | C[C@@H]1C[C@H](N=S(C)(C)=O)CN(c2ccnc(-c3cnc4ccc(OC(F)(F)F)cn34)n2)C1 [I-290, dimethyl(((3 S,5R)-5-methyl-1-(2-(6-(trifluoromethoxy)imidazo[1,2-a]pyridin-3-yl)pyrimidin-4-yl)piperidin-3-yl)imino)-λ6-sulfanone] |
|  | 0.5 to 5 | 0.01 to 0.1 | Cn1nccc1C(=O)N1CCN(c2ccnc(-c3cnc4ccc(C(F)(F)F)cn34)n2)CC1c1cn[nH]c1 (stereo not shown) [I-419, (2-(1H-pyrazol-4-yl)-4-(2-(6-(trifluoromethyl)imidazo[1,2-a]pyridin-3-yl)pyrimidin-4-yl)piperazin-1-yl)(1-methyl-1H-pyrazol-5-yl)methanone] |
